Test results from patent US20150268247A1, “Assay for Screening of Anti-Viral Compounds That Inhibit Specific Interaction Interfaces Between Cullin5 and an ElonginB/ElonginC/ CBF-beta/HIV-1 Vif Complex” (UNIVERSITY OF ROCHESTER, priority 2012, published 2015).
pKd: −log10 of the molar value. Residues, ends and D or L forms follow the SMILES beside them. *: point of attachment. 5FAM = O=C1OC2(c3ccc(O)cc3Oc3cc(O)ccc32)c2ccc(C(=O)*)cc21; Ahx = NCCCCCC(=O)O

Target: T1, Vif/EloB/C/CBFβ (UniProt P69723+Q15369)
T1 construct: Vif in the context of the Vif/EloB/C/CBFβ is full-length Vif (amino acids 1-192); co-expressing EloB1-118 and EloC17-112 from MCS1 and MCS2, respectively, from a pETDuet-1 vector (pEloBC); made in house; host or cells: E. coli BL21(DE3)
Experiment: Fluorescence anisotropy of 5-FAM Cul5 peptides with Vif/EloB/C/CBFβ
Type: binding, HIV-1 Vif; human EloB/C/CBFβ
Source text: The dissociation constant (KD) for each interaction is provided.

Q: `CC(C)C[C@H](NC(=O)CCCCCNC(=O)c1ccc2c(c1)C(=O)OC21c2ccc(O)cc2Oc2cc(O)ccc21)C(=O)N[C@@H](CCCNC(=N)N)C(=O)N[C@@H](CCC(N)=O)C(=O)N[C@@H](CCC(=O)O)C(=O)N[C@@H](CO)C(=O)N[C@H](C(=O)N[C@H](C(=O)N[C@@H](CCCCN)C(=O)N[C@@H](CCC(N)=O)C(=O)N[C@@H](CCC(N)=O)C(=O)N[C@@H](Cc1c[nH]c2ccccc12)C(=O)O)[C@@H](C)O)C(C)C` [Cul5(30-40)] ({5FAM-Ahx}-LRQESVTKQQW-OH) was tested. Which pKd did it give?
A: 4.80

Q: With `CC(C)C[C@H](NC(=O)[C@H](CS)NC(=O)[C@@H](NC(=O)[C@H](C)NC(=O)[C@H](Cc1c[nH]cn1)NC(=O)[C@@H](NC(=O)[C@H](CC(=O)O)NC(=O)[C@H](CO)NC(=O)[C@H](Cc1ccccc1)NC(=O)[C@H](CC(C)C)NC(=O)[C@H](CC(=O)O)NC(=O)[C@H](Cc1ccccc1)NC(=O)[C@H](Cc1c[nH]c2ccccc12)NC(=O)[C@H](CCC(N)=O)NC(=O)[C@H](CCC(N)=O)NC(=O)[C@H](CCCCN)NC(=O)CCCCCNC(=O)c1ccc2c(c1)C(=O)OC21c2ccc(O)cc2Oc2cc(O)ccc21)C(C)C)C(C)C)C(=O)N[C@@H](Cc1c[nH]c2ccccc12)C(=O)O` [Cul5(37-53)] ({5FAM-Ahx}-KQQWFDLFSDVHAVCLW-OH) as the compound, how does the pKd read?
A: 5.92

Q: `CC(C)C[C@H](NC(=O)CCCCCNC(=O)c1ccc2c(c1)C(=O)OC21c2ccc(O)cc2Oc2cc(O)ccc21)C(=O)N[C@@H](Cc1ccccc1)C(=O)N[C@@H](CO)C(=O)N[C@@H](CC(=O)O)C(=O)N[C@H](C(=O)N[C@@H](Cc1c[nH]cn1)C(=O)N[C@@H](C)C(=O)N[C@H](C(=O)N[C@@H](CS)C(=O)N[C@@H](CC(C)C)C(=O)N[C@@H](Cc1c[nH]c2ccccc12)C(=O)N[C@@H](CC(=O)O)C(=O)O)C(C)C)C(C)C` [Cul5(43-54)] was tested. Which pKd did it give?
A: 5.60

Q: How did the pKd turn out when `CC[C@H](C)[C@H](NC(=O)[C@H](CCCCN)NC(=O)[C@H](C)NC(=O)[C@@H]1CCCN1C(=O)CNC(=O)[C@H](CCCCN)NC(=O)[C@H](CC(=O)O)NC(=O)[C@H](CC(=O)O)NC(=O)[C@H](Cc1c[nH]c2ccccc12)NC(=O)[C@H](CC(C)C)NC(=O)[C@H](CS)NC(=O)[C@@H](NC(=O)[C@H](C)NC(=O)[C@H](Cc1c[nH]cn1)NC(=O)[C@@H](NC(=O)[C@H](CC(=O)O)NC(=O)[C@H](CO)NC(=O)[C@H](Cc1ccccc1)NC(=O)[C@H](CC(C)C)NC(=O)CCCCCNC(=O)c1ccc2c(c1)C(=O)OC21c2ccc(O)cc2Oc2cc(O)ccc21)C(C)C)C(C)C)C(=O)N[C@@H](Cc1c[nH]cn1)C(=O)N[C@@H](CCC(N)=O)C(=O)N[C@@H](C)C(=O)N[C@@H](CC(C)C)C(=O)O` [Cul5(43-65)] was run?
A: 5.33
